Compound	melting point
CC(Oc1ccc(O)cc1)C(=O)O (stereo not drawn)	143 to 147 °C
CC(C)(C)c1cc(C(C)(C)C)c2oc3c(C(C)(C)C)cc(C(C)(C)C)c(=O)c-3nc2c1	210 °C
[O-][P+](c1ccccc1)(c1ccccc1)C1C=C(c2ccccc2)C=C(c2ccccc2)S1 (stereo not drawn)	174 °C
Cc1ccncc1C	-11 °C
CCCCCCCCCC(C)CC (stereo not drawn)	-53 °C
O=[N+]([O-])c1cc(F)c(F)cc1F	-11 °C
O=c1cccco1	8.5 °C
CC1=NN(CN2CCCCC2)C(=O)/C1=N\Nc1cccnc1	177 °C
c1ccc(-c2cc3c(ccc4nonc43)nn2)cc1	201 to 203 °C
O=S1(=O)CCN(CN2CCS(=O)(=O)NC2)CN1	154 °C
Cc1ccc(-c2onc(C(=O)c3ccc([N+](=O)[O-])cc3)c2S(=O)(=O)c2ccccc2)cc1	225 to 227 °C
N#Cc1ccnc(Br)c1	72 °C
NC(=S)c1ccc2c(c1)OCO2	183 to 186 °C
O=S(=O)(Cl)Cc1cccc(Br)c1	88 to 89 °C
CCCSCC	-117 °C
Nc1cccc2c1CCCC2	38 °C
O=C1/C(=N/Nc2cccnc2)C(C(F)(F)F)=NN1c1ccccc1	161 °C
NC(=O)c1ccccc1C(F)(F)F	163 °C
Cc1c(Cl)c(C)c(Cl)c(Cl)c1Cl	223 °C
Fc1cc(F)c(Br)c(Br)c1	37 °C
CC(C)S(=O)(=O)c1cnc(-c2ccccn2)nc1N	147 to 150 °C
Cc1c(N(C)C)c(=O)n(-c2ccccc2)n1C	134 °C
O=C(CO)CO	90 °C
CN(C)c1ccc(C=O)c(F)c1C#N	125 to 127 °C

Compound	melting point
C=CC1CC=CCC1 (stereo not drawn)	-109 °C
COC(=O)c1c2c(c(C)c3c1CC3=O)C(=O)C2	168 °C
COc1cc(C(N)=O)cc(Cl)n1	186 °C
Brc1nc(Br)n(Cc2ccccc2)n1	60 to 65 °C
NC(=S)C1COc2ccccc2O1 (stereo not drawn)	180 to 183 °C
NNC(=O)C1CC1C(=O)NN (stereo not drawn)	187 to 191 °C
COP(=S)(OC)Oc1ccc(C#N)cc1	14.5 °C
O=S(=O)(Cl)c1ccc(-c2cnco2)s1	80 to 82 °C
Cc1cccc(C=CC(=O)O)c1	116 to 119 °C
O=C1C=C(NCNc2ccccn2)C(=O)c2ccccc21	134 to 136 °C
O=C(Nc1ccccc1)OC1CCCCCC1OC(=O)Nc1ccccc1 (stereo not drawn)	217 to 219 °C
CCCCCNCCCCC	-7.85 °C
Nc1cc(C(F)(F)F)c(Br)cc1F	36 °C
CC1=C(C(=O)OCc2ccccc2)C(c2cccc([N+](=O)[O-])c2)NC(=S)N1 (stereo not drawn)	176 °C
Clc1c(Cl)c(Cl)c2c(oc3c(Cl)c(Cl)c(Cl)c(Cl)c32)c1Cl	258 °C
Nc1ccccc1CCc1ccccc1N	72 to 77 °C
Cc1nn(-c2ccccc2)nc1C(=O)NNC(=N)C(Cl)(Cl)Cl	197 to 198 °C
OC1OC(C2CCCCC2)Cc2ccccc21 (stereo not drawn)	87.2 to 90 °C
N#CCOc1ccc(C2=NCCS2)cc1	83 to 85 °C
NNc1ncc(C(F)(F)F)cc1Cl	90 to 92 °C
O=C(Cc1ccccc1)NC(CO)c1ccccc1 (stereo not drawn)	140 °C
Nc1cccc(-c2cnco2)c1	92 to 95 °C
c1ccc(-c2coc(-c3ccccc3)n2)cc1	103 °C
COc1cc(C2c3cc4c(c(O)c3CC3COC(=O)C32)OCO4)cc(OC)c1OC (stereo not drawn)	234 °C

Compound	melting point
N=c1oc2ccccc2cc1CSN	165 °C
CCCCO[Si](OCCCC)(OCCCC)OCCCC	-80 °C
COc1cc(C=O)cc([N+](=O)[O-])c1O	176 °C
O=C(O)c1cccc2ccsc12	176 to 178 °C
O=c1[nH][nH]c(=O)c2cc3c(cc12)CCC3	310 °C
O=Cc1cccc2cccc([N+](=O)[O-])c12	125 °C
C[Si](C)(C)OC1(C#N)c2ccccc2CCc2ccccc2C1(C#N)O[Si](C)(C)C (stereo not drawn)	88 °C
NC(=O)NN=Cc1ccc([N+](=O)[O-])cc1	217 °C
CSc1scc2c1C(=NO)CC(C)(C)C2	151 to 154 °C
COc1ccc(C2(C)CCc3oc4ccccc4c3-c3oc(C)cc32)cc1 (stereo not drawn)	145 °C
CCSC(SCC)=C(C#N)c1ccccn1	160 to 162 °C
Brc1nncs1	70 to 73 °C
COP(=S)(OC)Oc1ccc([N+](=O)[O-])cc1Cl	52.5 °C
Cc1ccc2cccc-2cc1	82 to 83 °C
COC(=O)[C@H](CSSC[C@@H](C(=O)OC)N1C(=O)[C@@H]2[C@H](C1=O)[C@@H]1C=C[C@H]2C1)N1C(=O)[C@@H]2[C@H](C1=O)[C@@H]1C=C[C@H]2C1	100 °C
O=S1(=O)CC(Br)C(Br)C1 (stereo not drawn)	143 °C
Cc1ccc(C=C2C(=O)OC(C)(C)OC2=O)o1	93 °C
CCOC(=O)c1c[nH]c(=S)nc1N	256 to 258 °C
Nc1c(C(=O)O)cccc1[N+](=O)[O-]	211 °C
Nc1c(Br)cc(F)c(Cl)c1Br	98 °C
CC(=O)Nc1ncc([N+](=O)[O-])s1	264 °C
Oc1ccc(-n2cccc2)cc1	119 to 124 °C
O=[N+]([O-])c1ccccc1Nc1ccccc1	75 °C
FC(F)(F)c1cc(C=Cc2noc(CCl)n2)cc(C(F)(F)F)c1	106 to 108 °C

Compound	melting point
Nc1c(Cl)cc(C(F)(F)F)cc1Br	31 °C
CC(=Cc1ccc(C(=O)O)cc1)c1ccc2c(c1)C(C)(C)CCC2(C)C	240 °C
Cn1cnc2ncnc(N)c21	323 °C
O=C(CBr)c1ccc(N2CCOCC2)cc1	112 to 115 °C
CCN(C(=S)Cl)c1ccccc1	56 to 58 °C
CCC1(O)CCC2(C)C(CCC3C2CCC2(C)C3CCC23OCCO3)C1 (stereo not drawn)	127 °C
NC(=O)c1c(F)c(F)c(N)c(F)c1F	183 to 187 °C
Nc1c(C(=O)Oc2ccccc2)sc2sc(C(=O)Oc3ccccc3)c(N)c12	165 °C
COC(=O)C1CC(=O)N(C)C1 (stereo not drawn)	15 °C
Cc1cccc(NC(=O)c2ccccc2C(=O)O)c1	150 °C
Clc1nsc2ccccc12	39 °C
CN(CCO)c1nc2c(c(=O)n(C)c(=O)n2C)n1C	105 °C
COc1cc(-c2ccc(N=C=O)c(OC)c2)ccc1N=C=O	114 °C
COc1cc2ccc(=O)oc2cc1O	204 °C
NN=C(/C(=N/N)c1ccc2ccccc2c1)c1ccccc1	163 °C
CC(=O)c1nn2c(nc(=O)c3ccccc32)s1	199 °C
O=C(CCl)Nc1ccccc1C(F)(F)F	92 to 94 °C
FC(F)(F)c1cnc(S)c(Cl)c1	145 to 149 °C
O=C1C(=O)c2ccccc2C(Cl)=C1Cl	184 °C
CCCCCCCCc1ccc(NC(=O)c2ccc(C)cc2)cc1	113 °C
NC(=O)c1ccc(Cl)nc1	215 °C
